Values quoted from earlier work as cited in paper PMC6978833 (ACS Central Science, 2019).

Conditions: N3 of base in TAT / CGC triplets

| pKa (N3 protonation) | Compound |
| --- | --- |
| ~6.5 | Nc1cc[nH]c(=O)n1 [cytosine] |
| ~10 | Cc1c[nH]c(=O)[nH]c1=O [thymine] |
